{
  "source": "the supplement of paper PMC11208160",
  "data": [
    {"experiment": "recombinant barcode read abundance after kanamycin selection (control-corrected) (log10(CPM+1)); higher = more efficient recombination; sequences stand for … in AGTGCAGAGAAAATCGGCCAGTTTTCTCTGCCTGCAGTCCGCATGCCGT…AGATTTATGCAGCGGACTGCCTTTCTCCCAAAGTGATAAACCGGACAGTATCATGGACCGGTTTTCCCGGTAATCCGTATTTGCAAGGTTGGTTTCACT; site = the 11-nt target", "summary_of_the_method": "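Recombination efficiency in this pooled E. coli screen uses counts per million of barcodes at recombinant junctions, averaged and corrected against the control. The reported form is log10(CPM+1). Two replicates were plated on chloramphenicol/ampicillin LB agar as control and two on chloramphenicol/ampicillin/kanamycin with 0.1 mM IPTG.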", "values": [
      {"sequence": "TAGTGTCCTTGGGTTCTAACCTGTTGCGT (site TAGTTTCCTAC)", "recombinant barcode read abundance (log10)": 0.0286},
      {"sequence": "TAGTGTGCTTGGGTTCTAACCTGTTGCCT (site TAGTGTACTAG)", "recombinant barcode read abundance (log10)": 0.514},
      {"sequence": "TAGTGTGCTTGGGTTCTAACCTGTTGCCT (site TAGTGTCCTAG)", "recombinant barcode read abundance (log10)": 0.137},
      {"sequence": "TAGTGTGCTTGGGTTCTAACCTGTTGCCT (site TAGTGTGCTAG)", "recombinant barcode read abundance (log10)": 1.06},
      {"sequence": "TAGTGTGCTTGGGTTCTAACCTGTTGCCT (site TAGTGTTCTAG)", "recombinant barcode read abundance (log10)": 0.0139},
      {"sequence": "TAGTGTTCTTGGGTTCTAACCTGTTGCCT (site TAGTGTACTAG)", "recombinant barcode read abundance (log10)": 0.104},
      {"sequence": "TAGTGTTCTTGGGTTCTAACCTGTTGCCT (site TAGTGTCCTAG)", "recombinant barcode read abundance (log10)": 0.181},
      {"sequence": "TAGTGTTCTTGGGTTCTAACCTGTTGCCT (site TAGTGTGCTAG)", "recombinant barcode read abundance (log10)": 0.106},
      {"sequence": "TAGTGTTCTTGGGTTCTAACCTGTTGCCT (site TAGTGTTCTAG)", "recombinant barcode read abundance (log10)": 0.57},
      {"sequence": "TAGTTAGCTTGGGTTCTAACCTGTTGCCT (site TAGTTAGCTAG)", "recombinant barcode read abundance (log10)": 0.756},
      {"sequence": "TAGTTAGCTTGGGTTCTAACCTGTTGCCT (site TAGTTAGCTCG)", "recombinant barcode read abundance (log10)": 0.217},
      {"sequence": "TAGTTAGCTTGGGTTCTAACCTGTTGCCT (site TAGTTAGCTGG)", "recombinant barcode read abundance (log10)": 0.251},
      {"sequence": "TAGTTAGCTTGGGTTCTAACCTGTTGCCT (site TAGTTAGCTTG)", "recombinant barcode read abundance (log10)": 0.11},
      {"sequence": "TAGTTCACTTGGGTTCTAACCTGTTGCCA (site TAGTTAACTTG)", "recombinant barcode read abundance (log10)": 0.273},
      {"sequence": "TAGTTCACTTGGGTTCTAACCTGTTGCCA (site TAGTTCACTTG)", "recombinant barcode read abundance (log10)": 0.0767},
      {"sequence": "TAGTTCACTTGGGTTCTAACCTGTTGCCA (site TAGTTGACTTG)", "recombinant barcode read abundance (log10)": 0.0545},
      {"sequence": "TAGTTCACTTGGGTTCTAACCTGTTGCCA (site TAGTTTACTTG)", "recombinant barcode read abundance (log10)": 0.0834},
      {"sequence": "TAGTTGTCTTGGGTTCTAACCTGTTGCTT (site CGACGCACTCC)", "recombinant barcode read abundance (log10)": 0.301},
      {"sequence": "TAGTTGTCTTGGGTTCTAACCTGTTGCTT (site TAGTTGTCTAA)", "recombinant barcode read abundance (log10)": 0.569},
      {"sequence": "TAGTTTACTTGGGTTCTAACCTGTTGCTA (site GGTCAGTCTCC)", "recombinant barcode read abundance (log10)": 0.0822},
      {"sequence": "TAGTTTACTTGGGTTCTAACCTGTTGCTA (site TAGTTTACTTA)", "recombinant barcode read abundance (log10)": 0.0536},
      {"sequence": "TAGTTTGCTTGGGTTCTAACCTGTTGCCG (site ACCGACCCTAT)", "recombinant barcode read abundance (log10)": 0.00726},
      {"sequence": "TAGTTTGCTTGGGTTCTAACCTGTTGCCG (site TAGTTTGCTCG)", "recombinant barcode read abundance (log10)": 0.743},
      {"sequence": "TATAAGTCTTGGGTTCTAACCTGTTGCCT (site CGTAAGTCTAG)", "recombinant barcode read abundance (log10)": 0.0475},
      {"sequence": "TATAAGTCTTGGGTTCTAACCTGTTGCCT (site TATAAGTCTAG)", "recombinant barcode read abundance (log10)": 0.0571},
      {"sequence": "TATAATACTTGGGTTCTAACCTGTTGCGG (site TAGAATACTCC)", "recombinant barcode read abundance (log10)": 0.156},
      {"sequence": "TATAATACTTGGGTTCTAACCTGTTGCGG (site TATAATACTCC)", "recombinant barcode read abundance (log10)": 0.659},
      {"sequence": "TATAGAGCTTGGGTTCTAACCTGTTGCGG (site TAAAGAGCTCC)", "recombinant barcode read abundance (log10)": 0.358},
      {"sequence": "TATAGAGCTTGGGTTCTAACCTGTTGCGG (site TACAGAGCTCC)", "recombinant barcode read abundance (log10)": 0.297},
      {"sequence": "TATAGAGCTTGGGTTCTAACCTGTTGCGG (site TAGAGAGCTCC)", "recombinant barcode read abundance (log10)": 0.488},
      {"sequence": "TATAGAGCTTGGGTTCTAACCTGTTGCGG (site TATAGAGCTCC)", "recombinant barcode read abundance (log10)": 2.21},
      {"sequence": "TATATAACTTGGGTTCTAACCTGTTGCCT (site TATAAAACTAG)", "recombinant barcode read abundance (log10)": 0.137},
      {"sequence": "TATATAACTTGGGTTCTAACCTGTTGCCT (site TATACAACTAG)", "recombinant barcode read abundance (log10)": 0.0941},
      {"sequence": "TATATAACTTGGGTTCTAACCTGTTGCCT (site TATAGAACTAG)", "recombinant barcode read abundance (log10)": 0.119},
      {"sequence": "TATATAACTTGGGTTCTAACCTGTTGCCT (site TATATAACTAG)", "recombinant barcode read abundance (log10)": 0.125},
      {"sequence": "TATCAGACTTGGGTTCTAACCTGTTGCCA (site TATCAGACTTG)", "recombinant barcode read abundance (log10)": 0.639},
      {"sequence": "TATCAGACTTGGGTTCTAACCTGTTGCCA (site TATCTGACTAG)", "recombinant barcode read abundance (log10)": 0.119},
      {"sequence": "TATCCGACTTGGGTTCTAACCTGTTGCCG (site TATCCGACTAG)", "recombinant barcode read abundance (log10)": 0.224},
      {"sequence": "TATCCGACTTGGGTTCTAACCTGTTGCCG (site TATCCGACTCG)", "recombinant barcode read abundance (log10)": 0.396},
      {"sequence": "TATCCGACTTGGGTTCTAACCTGTTGCCG (site TATCCGACTGG)", "recombinant barcode read abundance (log10)": 0.386},
      {"sequence": "TATCCGACTTGGGTTCTAACCTGTTGCCG (site TATCCGACTTG)", "recombinant barcode read abundance (log10)": 0.11},
      {"sequence": "TATCCGACTTGGGTTCTAACCTGTTGCCT (site TATCCGACTAG)", "recombinant barcode read abundance (log10)": 1.12},
      {"sequence": "TATCCGACTTGGGTTCTAACCTGTTGCCT (site TATCCGACTCG)", "recombinant barcode read abundance (log10)": 0.553}
    ]}
  ]
}
